Here are results for 17 compounds from US12570642B2, “GLP-IR modulating compounds” (Gilead Sciences, Inc., priority 2021, dated 2026).

Each structure is given as a SMILES string.

Sequence of GLP-1R (P43220 24-463): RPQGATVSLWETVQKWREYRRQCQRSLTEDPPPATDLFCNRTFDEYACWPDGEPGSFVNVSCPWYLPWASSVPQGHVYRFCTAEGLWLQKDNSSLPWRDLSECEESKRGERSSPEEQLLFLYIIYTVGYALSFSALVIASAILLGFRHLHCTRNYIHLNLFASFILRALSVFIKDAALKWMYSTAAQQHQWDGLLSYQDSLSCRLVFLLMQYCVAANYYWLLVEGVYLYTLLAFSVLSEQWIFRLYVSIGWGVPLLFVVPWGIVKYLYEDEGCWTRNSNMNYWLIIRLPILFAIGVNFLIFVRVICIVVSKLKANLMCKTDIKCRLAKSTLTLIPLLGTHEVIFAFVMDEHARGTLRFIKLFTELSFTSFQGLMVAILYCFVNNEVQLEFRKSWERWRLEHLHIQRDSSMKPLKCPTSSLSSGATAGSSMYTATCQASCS

The target of this assay is GLP-1R (Homo sapiens, UniProt P43220). As to the kind of experiment: GLP-1R Activation - cAMP Assay. It is filed as cell-based. Particulars: cAMP increase in CHO cells stably expressing GLP-1R; each compound run on one of the two cAMP assays (Assay 1 or Assay 2, not specified). A digest of the protocol:
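cAMP rise read by HTRF after 30 min agonist exposure (10-point titration, 37 °C) in HBSS/20 mM Hepes/0.1% BSA, following 1 h pre-incubation. Cells: stable GLP-1R CHO line, 1,000/well, seeded overnight. Sigmoidal fit of response vs log concentration gives EC50.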
In general terms: Changes in cAMP serve as a functional read-out for many G protein-coupled receptors.
The EC50 is the midpoint of the concentration-response curve. The low end stands for higher potency in that assay, the high end for lower potency in that assay. For the compound `O=C(O)c1cc(F)c2nc(Cc3cc(F)c(-c4cccc(OCc5ccc(Cl)cc5F)n4)cc3F)n(C3COCC34CC4)c2c1` (centres unmarked) [Example 220, 2-(4-(6-((4-chloro-2-fluorobenzyl)oxy)pyridin-2-yl)-2,5-difluorobenzyl)-4-fluoro-1-(5-oxaspiro[2.4]heptan-7-yl)-1H-benzo[d]imidazole-6-carboxylic acid], the EC50 came to 216 pM.

On to `COCCn1c(Cc2cc(F)c(-c3cccc(OCc4ccc(-n5ccnn5)nc4)n3)cc2F)nc2c(F)cc(C(=O)O)cc21` [Example 221, 2-(4-(6-((6-(1H-1,2,3-triazol-1-yl)pyridin-3-yl)methoxy)pyridin-2-yl)-2,5-difluorobenzyl)-4-fluoro-1-(2-methoxyethyl)-1H-benzo[d]imidazole-6-carboxylic acid], for which the midpoint of the response, the EC50, lay at 508 pM.

As for `COCCn1c(Cc2c(F)cc(-c3cccc(OCc4ccc(-n5ccnn5)cc4)n3)c(F)c2F)nc2c(F)cc(C(=O)O)cc21` [Example 222, 2-(4-(6-((4-(1H-1,2,3-triazol-1-yl)benzyl)oxy)pyridin-2-yl)-2,3,6-trifluorobenzyl)-4-fluoro-1-(2-methoxyethyl)-1H-benzo[d]imidazole-6-carboxylic acid], the EC50 stood at 136 pM.

Compound `COCCn1c(Cc2c(F)cc(-c3ccc(F)c(OCc4ccc(-n5ccnn5)cc4)n3)c(F)c2F)nc2c(F)cc(C(=O)O)cc21` [Example 223, 2-(4-(6-((4-(1H-1,2,3-triazol-1-yl)benzyl)oxy)-5-fluoropyridin-2-yl)-2,3,6-trifluorobenzyl)-4-fluoro-1-(2-methoxyethyl)-1H-benzo[d]imidazole-6-carboxylic acid] displayed a concentration giving a half-maximal response (EC50) of 126 pM.

Compound `N#Cc1ccc(COc2nc(-c3cc(F)c(Cc4nc5c(F)cc(C(=O)O)cc5n4C4COCC45CC5)cc3F)ccc2F)c(F)c1` (centres unmarked) [Example 224, 2-(4-(6-((4-cyano-2-fluorobenzyl)oxy)-5-fluoropyridin-2-yl)-2,5-difluorobenzyl)-4-fluoro-1-(5-oxaspiro[2.4]heptan-7-yl)-1H-benzo[d]imidazole-6-carboxylic acid] yielded an EC50 of 515 pM.

For the compound `COCCn1c(Cc2cc(C)c(-c3ccc(F)c(OCc4ccc(C#N)cc4F)n3)cc2Cl)nc2c(F)cc(C(=O)O)cc21` [Example 225, 2-(2-chloro-4-(6-((4-cyano-2-fluorobenzyl)oxy)-5-fluoropyridin-2-yl)-5-methylbenzyl)-4-fluoro-1-(2-methoxyethyl)-1H-benzo[d]imidazole-6-carboxylic acid], the EC50 was determined as 7140 pM.

The compound `COCCn1c(Cc2c(F)cc(-c3cccc(OCc4cnc(-n5ccnn5)cc4Cl)n3)c(F)c2F)nc2c(F)cc(C(=O)O)cc21` [Example 226, 2-(4-(6-((4-chloro-6-(1H-1,2,3-triazol-1-yl)pyridin-3-yl)methoxy)pyridin-2-yl)-2,3,6-trifluorobenzyl)-4-fluoro-1-(2-methoxyethyl)-1H-benzo[d]imidazole-6-carboxylic acid] came in with an EC50 of 22 pM.

`COCCn1c(Cc2cc(C)c(-c3cccc(OCc4ccc(C#N)cc4F)n3)cc2Cl)nc2c(F)cc(C(=O)O)cc21` [Example 227, 2-(2-chloro-4-(6-((4-cyano-2-fluorobenzyl)oxy)pyridin-2-yl)-5-methylbenzyl)-4-fluoro-1-(2-methoxyethyl)-1H-benzo[d]imidazole-6-carboxylic acid] registered a half-maximal effective concentration (EC50) of 4800 pM.

With `CC1(C)COC[C@H]1n1c(Cc2cc(F)c(-c3ccc(F)c(OCc4ccc(Cl)cc4)n3)cc2F)nc2c(F)cc(C(=O)O)cc21` [Example 228, (S)-2-(4-(6-((4-chlorobenzyl)oxy)-5-fluoropyridin-2-yl)-2,5-difluorobenzyl)-1-(4,4-dimethyltetrahydrofuran-3-yl)-4-fluoro-1H-benzo[d]imidazole-6-carboxylic acid], a half-maximal response (EC50) required 47 pM.

`CC1(C)COC[C@H]1n1c(Cc2c(F)cc(-c3ccnc(OCc4ccc(Cl)cc4)n3)c(F)c2F)nc2c(F)cc(C(=O)O)cc21` [Example 229, (S)-2-(4-(2-((4-chlorobenzyl)oxy)pyrimidin-4-yl)-2,3,6-trifluorobenzyl)-1-(4,4-dimethyltetrahydrofuran-3-yl)-4-fluoro-1H-benzo[d]imidazole-6-carboxylic acid] had a concentration for a half-maximal effect (EC50) of 135 pM.

Compound `CC1(C)COC[C@H]1n1c(Cc2cc(F)c(-c3ccnc(OCc4ccc(Cl)cc4)n3)cc2F)nc2c(F)cc(C(=O)O)cc21` [Example 230, (S)-2-(4-(2-((4-chlorobenzyl)oxy)pyrimidin-4-yl)-2,5-difluorobenzyl)-1-(4,4-dimethyltetrahydrofuran-3-yl)-4-fluoro-1H-benzo[d]imidazole-6-carboxylic acid] had an EC50 of 34 pM.

In turn, `CC1(C)COC[C@H]1n1c(Cc2cc(F)c(-c3ccnc(OCc4ccc(Cl)cc4)n3)cc2F)nc2ccc(C(=O)O)cc21` [Example 231, (S)-2-(4-(2-((4-chlorobenzyl)oxy)pyrimidin-4-yl)-2,5-difluorobenzyl)-1-(4,4-dimethyltetrahydrofuran-3-yl)-1H-benzo[d]imidazole-6-carboxylic acid] returned a concentration giving a half-maximal response (EC50) of 49 pM.

As to `COCCn1c(Cc2c(F)cc(-c3ccc(F)c(OCc4ccc(C#N)cc4F)n3)c(F)c2F)nc2c(F)cc(C(=O)O)cc21` [Example 232, 2-(4-(6-((4-cyano-2-fluorobenzyl)oxy)-5-fluoropyridin-2-yl)-2,3,6-trifluorobenzyl)-4-fluoro-1-(2-methoxyethyl)-1H-benzo[d]imidazole-6-carboxylic acid], it took 118 pM to reach a half-maximal effect (EC50).

Turning to `CC1(C)COC[C@H]1n1c(Cc2ccc(-c3ccc(F)c(OCc4ccc(-n5ccnn5)cc4F)n3)cc2F)nc2c(F)cc(C(=O)O)cc21` [Example 235, (S)-1-(4,4-dimethyltetrahydrofuran-3-yl)-4-fluoro-2-(2-fluoro-4-(5-fluoro-6-((2-fluoro-4-(1H-1,2,3-triazol-1-yl)benzyl)oxy)pyridin-2-yl)benzyl)-1H-benzo[d]imidazole-6-carboxylic acid], a half-maximal effect (EC50) was put at 191 pM.

Consider `CC1(C)COC[C@H]1n1c(Cc2ccc(-c3ccc(F)c(OCc4ccc(-n5ccnn5)cc4F)n3)cc2F)nc2ccc(C(=O)O)cc21` [Example 236, (S)-1-(4,4-dimethyltetrahydrofuran-3-yl)-2-(2-fluoro-4-(5-fluoro-6-((2-fluoro-4-(1H-1,2,3-triazol-1-yl)benzyl)oxy)pyridin-2-yl)benzyl)-1H-benzo[d]imidazole-6-carboxylic acid], for which the EC50 was 203 pM.

`Cc1cnc(COc2cccc(-c3cc(F)c(Cc4nc5ccc(C(=O)O)cc5n4[C@@H]4COCC4(C)C)cc3F)n2)c(F)c1` [Example 237, (S)-2-(2,5-difluoro-4-(6-((3-fluoro-5-methylpyridin-2-yl)methoxy)pyridin-2-yl)benzyl)-1-(4,4-dimethyltetrahydrofuran-3-yl)-1H-benzo[d]imidazole-6-carboxylic acid] had an EC50 of 520 pM.

Take `CC1(C)COC[C@H]1n1c(Cc2cc(F)c(-c3cccc(OCc4ccc5c(c4)CN(S(C)(=O)=O)C5)n3)cc2F)nc2c(F)cc(C(=O)O)cc21` [Example 240, (S)-2-(2,5-difluoro-4-(6-((2-(methylsulfonyl)isoindolin-5-yl)methoxy)pyridin-2-yl)benzyl)-1-(4,4-dimethyltetrahydrofuran-3-yl)-4-fluoro-1H-benzo[d]imidazole-6-carboxylic acid]: the EC50 turned out to be 127 pM.
